Laboratory results taken from patent publication US20260191853A1, “METHOD OF TREATING DRUG-INDUCED BRADYARRHYTHMIA” (OSAKA UNIVERSITY, priority 2022, published 2026).
Where a name gives a salt, the structure may show the parent alone.

Assays:
Hartley guinea pigs [1] = test: Preventive effect on fingolimod-induced bradyarrhythmia in isoflurane-anesthetized guinea pig model; format: in vivo; details: fingolimod hydrochloride 0.1 mg/kg i.v. over 10 min, compound (I) non-administration group
Protocol: A solvent or compound (I) (free form) was administered by oral gavage at a dose of 1, 3, or 10 mg/kg (volume: 5 mL/kg) to Hartley guinea pigs (7 to 10 weeks old, male, available from Japan SLC, Inc.). After completion of the administration, each animal was subjected to anesthetic induction by inhalation of isoflurane (available from Pfizer Japan Inc.), and the animal was held on an operating table having a heater function. The trachea was incised, and a tracheal cannula (KN-375, available from Natsume Seisakusho Co., Ltd.) was inserted. The tracheal cannula was connected to a ventilator (SN-480-7, available from Shinano Seisakusho Co., Ltd.), and artificial respiration was controlled by supplying 100% oxygen at a volume of 10 mL and a ventilation rate of 60 times/minute. The solvent used was 0.5 w/v % methyl cellulose 400 solution (available from FUJIFILM Wako Pure Chemical Corporation). Isoflurane (available from Pfizer Japan Inc.) anesthesia (about 1 to 4%, carrier gas: 100% oxygen) was used for maintenance of anesthesia. A catheter (BD intramedic polyethylene tubing PE50, available from Becton, Dickinson and Company) charged with 50 units/mL heparin (available from AY PHARMACEUTICALS CO., LTD.) was inserted into each of the carotid artery and the jugular vein and placed in the blood vessel. Systemic blood pressure was measured with a high-sensitivity DC amplifier (AD-611J, available from NIHON KOHDEN CORPORATION) via the catheter placed in the carotid artery. Electrodes were attached to the body surface, and a body surface electrocardiogram was measured with a high-sensitivity amplifier (AB-611J, available from NIHON KOHDEN CORPORATION). Blood pressure and electrocardiogram data were acquired and analyzed with PowerLab/Labchart system (available from ADInstruments). Analysis items are systolic blood pressure, diastolic blood pressure, average blood pressure, heart rate, P-wave width, PR interval, QRS width, QT interval, and corrected QT interval. Corrected QT interval was calculated using the fridericia formula (QTc=QT interval/RR interval^1/3). After stabilization of each parameter, fingolimod hydrochloride (synthesized with reference to WO 2000/027798) was continuously administered intravenously at 0.1 mg/kg for 10 minutes via the catheter placed in the jugular vein, followed by observation of the presence or absence of the onset of bradyarrhythmia for 60 minutes. The solvent used was saline (available from Otsuka Pharmaceutical Factory, Inc.). Data were recorded and blood was collected 5, 10, 15, 20, 30, and 60 minutes after initiation of administration of fingolimod hydrochloride. The observation was terminated 60 minutes after initiation of the administration, and the animal was euthanized by exsanguination or intravenous administration of a large amount of pentobarbital or saturated potassium chloride solution under isoflurane anesthesia. Data were analyzed for atrial beating rate over time, ventricular beating rate over time, electrocardiographic parameters, the presence or absence of the onset of atrioventricular block, and plasma concentrations of compound (I), fingolimod, and fingolimod phosphorylated form. The plasma was collected by centrifuging the blood and cryopreserved at about −20° C. After thawing of the plasma, plasma drug concentrations were measured using LC/MS/MS after deproteinization with acetonitrile.
Atrioventricular block was defined as follows.
Second-degree atrioventricular block: atrial activation wave (P wave) is normal, which is followed by or not followed by ventricular activation wave (QRS wave).
Third-degree atrioventricular block: there is no electrical conduction between the atrium and the ventricle, and atrial and ventricular activation waves are generated independently, resulting in atrioventricular dissociation.
In FIG. 1, the measurements are shown as mean±standard error. […]

Hartley guinea pigs [2] = test: Preventive effect on siponimod-induced bradyarrhythmia in isoflurane-anesthetized guinea pig model; format: in vivo; details: siponimod 0.01 mg/kg i.v. over 10 min, compound (I) non-administration group
Protocol: A solvent or compound (I) (free form) was administered by oral gavage at a dose of 0.3. 1, or 3 mg/kg (volume: 5 mL/kg) to Hartley guinea pigs (7 to 10 weeks old, male, available from Japan SLC, Inc.). After completion of the administration, each animal was subjected to anesthetic induction by inhalation of isoflurane (available from Pfizer Japan Inc.), and the animal was held on an operating table having a heater function. The trachea was incised, and a tracheal cannula (KN-375, available from Natsume Seisakusho Co., Ltd.) was inserted. The tracheal cannula was connected to a ventilator (SN-480-7, available from Shinano Seisakusho Co., Ltd.), and artificial respiration was controlled by supplying 100% oxygen at a volume of 10 mL and a ventilation rate of 60 times/minute. The solvent used was 0.5 w/v % methyl cellulose 400 solution (available from FUJIFILM Wako Pure Chemical Corporation). Isoflurane (available from Pfizer Japan Inc.) anesthesia (about 1 to 4%, carrier gas: 100% oxygen) was used for maintenance of anesthesia. A catheter (BD intramedic polyethylene tubing PE50, available from Becton, Dickinson and Company) charged with 50 units/mL heparin (available from AY PHARMACEUTICALS CO., LTD.) was inserted into each of the carotid artery and the jugular vein and placed in the blood vessel. Systemic blood pressure was measured with a high-sensitivity DC amplifier (AD-611J, available from NIHON KOHDEN CORPORATION) via the catheter placed in the carotid artery. Electrodes were attached to the body surface, and a body surface electrocardiogram was measured with a high-sensitivity amplifier (AB-611J, available from NIHON KOHDEN CORPORATION). Blood pressure and electrocardiogram data were acquired and analyzed with PowerLab/Labchart system (available from ADInstruments). Analysis items are systolic blood pressure, diastolic blood pressure, average blood pressure, heart rate, P-wave width, PR interval, QRS width, QT interval, and corrected QT interval. Corrected QT interval was calculated using the Fridericia formula (QTc=QT interval/RR interval^1/3). After stabilization of each parameter, siponimod (synthesized according to WO 2017/120124) was continuously administered intravenously at 0.01 mg/kg for 10 minutes via the catheter placed in the jugular vein, followed by observation of the presence or absence of the onset of bradyarrhythmia for 60 minutes. The solvent used was a solution prepared by mixing of Polyethylene Glycol 400 (available from KANTO CHEMICAL CO., INC.) and dimethyl sulfoxide (available from FUJIFILM Wako Pure Chemical Corporation) at 9: 1 (volume ratio). Data were recorded and blood was collected 5, 10, 15, 20, 30, and 60 minutes after initiation of administration of siponimod. The observation was terminated 60 minutes after initiation of the administration, and the animal was euthanized by exsanguination or intravenous administration of a large amount of saturated potassium chloride solution under isoflurane anesthesia. Data were analyzed for atrial beating rate over time, ventricular beating rate over time, electrocardiographic parameters, the presence or absence of the onset of atrioventricular block, and plasma concentrations of compound (I) and siponimod. The plasma was collected by centrifuging the blood and cryopreserved at about −20° C. After thawing of the plasma, plasma drug concentrations were measured using LC/MS/MS after deproteinization with acetonitrile.
In FIG. 3, the measurements are shown as mean±standard error. Abbreviations, etc. are as follows. • (I): compound (I) • Atrioventricular block: the presence or absence of atrioventricular block • (x denotes second- or third-degree atrioventricular block) • PR & QRS: atrioventricular conduction time and ventricular activation time • QT & QTcF: ventricular repolarization time and heart rate-corrected ventricular repolarization time • Plasma concentration: the plasma concentration of siponimod or compound (I)

[3] = tested on: human iPS cell-derived atrial myocytes; test: Siponimod-induced decrease in beating rate in human iPS cell-derived atrial myocytes (multi-electrode array); format: cell-based; details: 0.1 μM siponimod, observed 10 minutes
Protocol: Cryopreserved human iPS cell-derived atrial myocytes (Human iPSC-derived atrial cardiomyocytes, available from Axol Bioscience) were thawed and seeded at 1,400,000 cells/well on a fibronectin-coated 6-well plate, followed by culturing in an incubator at 37° C. and 5% CO2 for 11 days. During the culture, the entire amount of medium was changed every other day. After the elapse of 11 days, human iPS cell-derived atrial myocytes that started beating were removed from the plate and recovered with TrypLE Select Enzyme (available from ThermoFisher Scientific). The atrial myocytes were seeded at 25,000 cells/2 μL on a fibronectin-coated 6-well MEA Chip (60-6well MEA200/30iR-Ti-tcr, available from Multi Channel Systems) and cultured in an incubator at 37° C. and 5% CO2 for one hour. Thereafter, 400 μL of medium was added and cultured in an incubator at 37° C. and 5% CO2 for 13 days. During the culture, a half amount of the medium was changed every other day. After the elapse of […], the MEA Chip was set in a multi-electrode array system (MEA2100, available from Multi Channel Systems) to thereby obtain extracellular potentials under spontaneous beating. […] Data were analyzed with Labchart System (available from ADInstruments).
In FIG. 6, the measurements are shown as mean±standard error, and (I) denotes compound (I).

Hartley guinea pigs [4] = test: Termination effect on fingolimod-induced bradyarrhythmia in isoflurane-anesthetized guinea pig model; format: in vivo; details: 30 minutes after initiation of administration of 0.1 mg/kg i.v.; FIG. 5
Excerpt: Hartley guinea pigs (7 to 10 weeks old, male, available from Japan SLC, Inc.) were subjected to anesthetic induction by inhalation of isoflurane (available from Pfizer Japan Inc.), and each animal was held on an operating table having a heater function. The trachea was incised, and a tracheal cannula (KN-375, available from Natsume Seisakusho Co., Ltd.) was inserted. The tracheal cannula was connected to a ventilator (SN-480-7, available from Shinano Seisakusho Co., Ltd.), and artificial respiration was controlled by supplying 100% oxygen at a volume of 10 mL and a ventilation rate of 60 times/minute. Isoflurane (available from Pfizer Japan Inc.) anesthesia (about 1 to 4%, carrier gas: 100% oxygen) was used for maintenance of anesthesia. A catheter (BD intramedic polyethylene tubing PE50, available from Becton, Dickinson and Company) charged with 50 units/mL heparin (available from AY PHARMACEUTICALS CO., LTD.) was inserted into each of the carotid artery and the jugular vein and placed in the blood vessel. Systemic blood pressure was measured with a high-sensitivity DC amplifier (AD-611J, available from NIHON KOHDEN CORPORATION) via the catheter placed in the carotid artery. Electrodes were attached to the body surface, and a body surface electrocardiogram was measured with a high-sensitivity amplifier (AB-611J, available from NIHON KOHDEN CORPORATION). Blood pressure and electrocardiogram data were acquired and analyzed with PowerLab/Labchart system (available from ADInstruments). After stabilization of each parameter, fingolimod hydrochloride (available from Nissan Chemical Corporation) was continuously administered intravenously at 0.1 mg/kg for 10 minutes via the catheter placed in the jugular vein, followed by observation of the presence or absence of atrioventricular block. After confirmation that atrioventricular block continued for 10 minutes from the onset thereof, a solvent or compound (I) dihydrochloride was continuously administered intravenously at 0.1 mg/kg for 30 minutes, and the effect of terminating atrioventricular block was observed during the intravenous administration. The solvent used was saline (available from Otsuka Pharmaceutical Factory, Inc.). Data were recorded and blood was collected 10, 20, and 30 minutes after initiation of administration of compound (I) dihydrochloride and at the time of termination of atrioventricular block. The observation was terminated 30 minutes after initiation of the administration, and the animal was euthanized by exsanguination or intravenous administration of a large amount of saturated potassium chloride solution under isoflurane anesthesia. Data were analyzed for the presence or absence of the termination, the time required for the termination, and the plasma concentration of compound (I) at the time of termination. The plasma was collected by centrifuging the blood and cryopreserved at about −20° C. After thawing of the plasma, plasma drug concentrations were measured using LC/MS/MS after deproteinization with acetonitrile.
In Table 1, the measurements are shown as mean±standard error.

CCCCCCCCc1ccc(CCC(N)(CO)CO)cc1 [fingolimod, reference compound]
cases with fingolimod-induced atrioventricular block (Hartley guinea pigs [1]): four out of four

CCc1cc(/C(C)=N/OCc2ccc(C3CCCCC3)c(C(F)(F)F)c2)ccc1CN1CC(C(=O)O)C1 [siponimod, reference compound]
cases with siponimod-induced atrioventricular block (Hartley guinea pigs [2]): three out of four
beating rate after addition of siponimod (sinus bradycardia) [3]: ≤ 50 beats/minute

Cc1cc(CO)nc2cc3c(cc12)OC(C)(C)[C@H](O)[C@H]3NCCc1ccccc1 [compound (I) dihydrochloride]
fingolimod-induced bradycardia (heart rate, electrocardiogram) (Hartley guinea pigs [4]): completely recovered
